Assay results as given in patent US20080118918A1, “Compositions and Methods For Determining and Predicting Treatment Responses For Depression and Anxiety” (THE REGENTS of the University of California, priority 2004, published 2008).

Assays:
[1] = system: depressed Mexican-Americans; assay: prospective randomized, placebo lead-in, double-blind treatment of fluoxetine or desipramine for eight weeks; HAM-A and HAM-D changes stratified by CRHR1 GAG haplotype; assay type: in vivo, human; conditions: fluoxetine 10 mg-40 mg/day vs desipramine 50 mg-200 mg/day, 8 weeks
From the text: The primary outcome measures of the association analysis were the changes in the Hamilton rating scales for anxiety (HAM-A) and depression (HAM-D).
All patients were followed weekly and assessed for changes in the Hamilton rating scales for anxiety (HAM-A) and depression (HAM-D). Inclusion criteria in the study included a HAM-D of 18 or higher. Patients were classified into a high anxiety (HA) group if their HAM-A score was 18 or higher and in a low anxiety (LA) group if their HAM-A score was less than 18.
The study population consisted of 233 depressed subjects enrolled in an ongoing pharmacogenetic study of antidepressant treatment response to desipramine or fluoxetine. Data from the first 80 subjects who completed the protocol and for whom we had available genetic data are reported herein. […] All patients are Mexican-American men and women ages 21-68, with a current episode of major depression as diagnosed by the DSM-IV. In this study, all Mexican-American subjects had at least three grandparents born in Mexico. […]
Eighty subjects were divided into a low anxiety group (LA) with HAM-A score less than 18 at screening and a high anxiety group (HA), with HAM-A scores that were 18 or higher at screening. […] Demographics of the LA group and HA group were assessed for homogeneity using χ^2 or t-tests, as appropriate.

CNS CRH gene expression = conditions: in vivo; cited from earlier work

CNCCCN1c2ccccc2CCc2ccccc21 [desipramine]
antidepressant effectiveness, comparison of the two drugs [1]: no differences between the two drugs in terms of antidepressant effectiveness have been observed
effects on downregulating CNS CRH gene expression (CNS CRH gene expression): equal effects on downregulating CNS CRH gene expression

CNCCC(Oc1ccc(C(F)(F)F)cc1)c1ccccc1 (stereo not shown) [fluoxetine]
antidepressant effectiveness, comparison of the two drugs [1]: no differences between the two drugs in terms of antidepressant effectiveness have been observed
effects on downregulating CNS CRH gene expression (CNS CRH gene expression): equal effects on downregulating CNS CRH gene expression
